Measured values taken from PMC10314922, “Fluorescence lifetime FRET assay for live-cell high-throughput screening of the cardiac SERCA pump yields multiple classes of small-molecule allosteric modulators” (Scientific Reports, 2023).
Several values for one entry are separate records, joined by “and”; a condition that tells them apart may be missing. Equal values may be shown once. Entries after “also recorded” stand apart in the source; their conditions may differ. Read-outs that look alike come from different tables or passages of the source.

Legend:
SERCA2a [1] = molecular target: T1, SERCA2a (Sus scrofa, UniProt P11607); design: method as in PMID 32397211; conditions: read-out: EC50 of SERCA inhibition; cited from earlier work
T1 construct: Cardiac SR vesicles were isolated from fresh porcine left ventricular tissue using differential centrifugation; from tissue; host or cells: porcine left ventricular tissue (cardiac SR vesicles)

SERCA2a [2] = molecular target: T1, SERCA2a; assay: NADH-linked Ca2+-ATPase activity assay in pig cardiac SR (pCSR) vesicles; format: biochemical; conditions: for Ca2+-ATPase C10: concentration yielding 10% effect
Method: (§1) Cardiac SR vesicles were isolated from fresh porcine left ventricular tissue using differential centrifugation of the homogenized tissue as previously described. The SR vesicles were flash-frozen and stored at − 80 °C until needed. The SERCA concentration in the ER preparations purified from HEK cell homogenate is at least 10 times less than in purified porcine cardiac SR[20], but there was sufficient expression of the fluorescent SERCA2a biosensor in HEK cells to detect FRET with high precision by FLT[22],[23],[26].
Functional assays were performed using porcine cardiac SR (pCSR) vesicles. An enzyme-coupled, NADH-linked ATPase assay was used to measure SERCA ATPase activity in 384-well microplates. Each well contained 50 mM MOPS (pH 7.0), 100 mM KCl, 1 mM EGTA, 0.2 mM NADH, 1 mM phosphoenol pyruvate, 10 IU/mL of pyruvate kinase, 10 IU/mL of lactate dehydrogenase, 7 µM of the calcium ionophore A23187 (Sigma), and CaCl2 was added to set free [Ca^2+] to three different concentrations. Ca^2+-ATPase activity was measured at three [Ca^2+]: [Ca^2+]MAX (saturating, pCa 5.4), [Ca^2+]MID (subsaturating, midpoint, pCa 6.2), and [Ca^2+]BAS (basal non-activating, pCa 8.0). 10 μg/mL of SR vesicle, calcium, compound (0.048 to 50 μM), and assay mix were incubated for 20 min at room temperature before measurement of functional assays with each of the 18 hit compounds, because a shorter incubation time than the FRET live-cell assays achieved optimal responses. The assay was started upon the addition of MgATP, at a final concentration of 5 mM (total volume to 80 μL), and absorbance was read at 340 nm in a SpectraMax Plus^384 microplate spectrophotometer (Molecular Devices, Sunnyvale, CA).
(§2) SERCA2a activity, F (rate of ATP hydrolysis or Ca^2+ uptake), was measured at varying pCa and varying compound concentration. F measured at [Ca^2+]MAX (saturating, pCa 5.4) or [Ca^2+]MID (subsaturating, midpoint, pCa 6.2) was corrected by subtracting the basal rate at pCa 8.0) and the % effect due to compound was reported. Concentration response curves (CRC) were fitted using the Hill function to determine VMAX (the activity at saturating [compound]), and EC50, the compound concentration at 50% effect.

SERCA2a [3] = molecular target: T1, SERCA2a; assay: Oxalate-supported Fluo-4 Ca2+-uptake (Ca2+-transport) assay in pig cardiac SR (pCSR) vesicles; format: biochemical; conditions: for Ca2+-Uptake C10: concentration yielding 10% effect; for CR (coupling ratio) VU/VA: maximum Ca2+-uptake rate / Ca2+-ATPase rate at [Ca2+]MAX, DMSO control = 0.66; for Inhibition of Ca2+-uptake (class): strong / moderate / mild
Method: as §1
Ca^2+-transport assays were performed with similar porcine SR samples as in the Ca^2+-ATPase assays described above. The compound effect on the Ca^2+-transport activity of SERCA2a was determined using an oxalate-supported assay in which the change in fluorescence in a Ca^2+-sensitive dye, Fluor-4, was determined as previously described. A buffered solution containing 50 mM MOPS (pH 7.0), 100 mM KCl, 30 mg/mL sucrose, 1 mM EGTA, 10 mM potassium oxalate, 2 µM Fluo-4, 30 µg/mL porcine cardiac SR vesicles, CaCl2 calculated to reach the free [Ca^2+] (pCa 8.0, 6.2, and 5.4), and compound (0.048 to 50 μM) was dispensed into 384-well black walled, transparent bottomed plates (Greiner Bio-One) containing the tested small molecule and incubated at 22℃ for 20 min while covered and protected from light. To start the reaction, MgATP was added to a final concentration of 5 mM, and the decrease in 485-nm excited fluorescence of Fluo-4 was monitored at 520 nm for 15 min using a FLIPR Tetra (Molecular Devices, San Jose, CA).
as §2

[4] = molecular target: T2, human two-color SERCA2a (2CS) biosensor (Homo sapiens, UniProt P16615, INS508[…]); assay: FRET concentration response curves (FLT-FRET) with the 2CS biosensor in live HEK cells; format: cell-based
T2 construct: expressed in transfected cells
Excerpt: A two-color intramolecular human SERCA2a (2CS) biosensor, based on human cardiac SERCA2a fused to green fluorescent protein (eGFP) and red fluorescent protein (tagRFP) was developed to detect structural changes that are related to the functional changes of SERCA[20],[22],[25]. Briefly, tagRFP was genetically fused to the N-terminus of SERCA (A-domain) and eGFP was inserted as an intrasequence tag before residue 509 in the nucleotide-binding domain (N-domain)[60],[61]. Donor-only and acceptor-only (1CS) biosensors were created in a similar manner as the 2CS biosensor but with the construct containing either only eGFP or only tag-RFP, respectively. […] A null-biosensor construct consisting of eGFP and tagRFP connected by a 32-residue unstructured flexible linker peptide (G32R) was created as described previously[23],[25]. All constructs were cloned into expression vectors containing the genes for antibiotic resistance to G418, puromycin, or blasticidin.
Stable cell lines were generated using either human embryonic kidney (HEK) HEK293 (ATCC, Manassas, VA) or HEK293-6E (National Research Council, Canada) cells. Briefly, cells were transiently transfected with 2CS, 1CS, or G32R null-biosensor plasmids using Lipofecatime 3000 or 293fectin (Thermo Fisher Scientific). Flow cytometry was used to select and enrich for the population of cells expressing respective biosensors. Stable HEK293 cell lines were maintained in phenol red-free DMEM media (Gibco, Waltham, MA) supplemented with 2 mM GlutaMAX (Gibco, Waltham, MA), 10% fetal bovine serum (FBS) (Atlanta Biologicals, Lawrenceville, GA), 1 IU/mL penicillin/streptomycin (Gibco, Waltham, MA), and 250 μg/mL G418 (Fisher Scientific). Stable HEK293-6E cell lines were maintained in F17 media (Sigma Aldrich) supplemented with Kolliphor p188 (Sigma Aldrich, St. Louis, MO), […] GlutaMAX, and either 1 μg/mL puromycin (Invitrogen, Carlsbad, CA) or 2 μg/mL blasticidin (Goldbio) as a selection antibiotic. All cell lines were grown at 37 °C with 5% CO2.
FRET CRC assay plates (0.78–100 μM compound range) with at least ten different compound concentrations were made by adding the appropriate volume of compound or DMSO into black 384 well plates (Greiner Bio-One) using a Mosquito HV (SPTLabTech, United Kingdom). Subsequent Ca^2+-ATPase activity and Ca^2+-transport CRC assay plates (0–50 μM compound range) with repurchased compounds were made in a similar manner using with the Echo 550 (Beckman Coulter) using either 384 well transparent plates (Greiner Bio-One) or black-walled plates with transparent bottoms (Greiner Bio-One), respectively.
On each day of screening, cells were harvested, washed three times with PBS, and centrifuged at 300 g for 5 min. Cells were filtered using a 70 µm cell strainer and diluted to 1–2 × 10^6 cells/mL. Cell concentration and viability were assessed using the Cell countess (Invitrogen) and trypan blue assay. During assays, cells were constantly and gently stirred using a magnetic stir bar at room temperature, keeping the cells in suspension and evenly distributed to avoid clumping. HEK 293-cells expressing 2CS were dispensed at 5 μL or […] per well into assay plates (dispensed into 40 assay plates, each containing 1536 wells) pre-plated with compounds (from a DIVERset 50,000 compound library) using a Multdrop Combi liquid dispenser (Thermo Fisher Scientific, Pittsburg, PA) and sealed until needed. Because the kinetics of membrane permeability, diffusion, and/or binding of the compound to live cells may be compound-dependent, we tested two incubation times, 20 min and 120 min, for the FRET CRC. […] Plates containing eight-point concentration curves of three tool compounds (known SERCA effectors thapsigargin, BHQ, and CPA)[22] were used as positive controls for biosensor function and performance prior to running the full-scale FRET-HTS assay. […]

[5] = [Ca2+]MID (pCa6.2), maximal compound effect vs DMSO control, pCSR
[6] = activators, categories activate / uncouple / inhibit

T2 sequence (P16615 other isoform, or with tags, fused parts or gaps with the stated changes): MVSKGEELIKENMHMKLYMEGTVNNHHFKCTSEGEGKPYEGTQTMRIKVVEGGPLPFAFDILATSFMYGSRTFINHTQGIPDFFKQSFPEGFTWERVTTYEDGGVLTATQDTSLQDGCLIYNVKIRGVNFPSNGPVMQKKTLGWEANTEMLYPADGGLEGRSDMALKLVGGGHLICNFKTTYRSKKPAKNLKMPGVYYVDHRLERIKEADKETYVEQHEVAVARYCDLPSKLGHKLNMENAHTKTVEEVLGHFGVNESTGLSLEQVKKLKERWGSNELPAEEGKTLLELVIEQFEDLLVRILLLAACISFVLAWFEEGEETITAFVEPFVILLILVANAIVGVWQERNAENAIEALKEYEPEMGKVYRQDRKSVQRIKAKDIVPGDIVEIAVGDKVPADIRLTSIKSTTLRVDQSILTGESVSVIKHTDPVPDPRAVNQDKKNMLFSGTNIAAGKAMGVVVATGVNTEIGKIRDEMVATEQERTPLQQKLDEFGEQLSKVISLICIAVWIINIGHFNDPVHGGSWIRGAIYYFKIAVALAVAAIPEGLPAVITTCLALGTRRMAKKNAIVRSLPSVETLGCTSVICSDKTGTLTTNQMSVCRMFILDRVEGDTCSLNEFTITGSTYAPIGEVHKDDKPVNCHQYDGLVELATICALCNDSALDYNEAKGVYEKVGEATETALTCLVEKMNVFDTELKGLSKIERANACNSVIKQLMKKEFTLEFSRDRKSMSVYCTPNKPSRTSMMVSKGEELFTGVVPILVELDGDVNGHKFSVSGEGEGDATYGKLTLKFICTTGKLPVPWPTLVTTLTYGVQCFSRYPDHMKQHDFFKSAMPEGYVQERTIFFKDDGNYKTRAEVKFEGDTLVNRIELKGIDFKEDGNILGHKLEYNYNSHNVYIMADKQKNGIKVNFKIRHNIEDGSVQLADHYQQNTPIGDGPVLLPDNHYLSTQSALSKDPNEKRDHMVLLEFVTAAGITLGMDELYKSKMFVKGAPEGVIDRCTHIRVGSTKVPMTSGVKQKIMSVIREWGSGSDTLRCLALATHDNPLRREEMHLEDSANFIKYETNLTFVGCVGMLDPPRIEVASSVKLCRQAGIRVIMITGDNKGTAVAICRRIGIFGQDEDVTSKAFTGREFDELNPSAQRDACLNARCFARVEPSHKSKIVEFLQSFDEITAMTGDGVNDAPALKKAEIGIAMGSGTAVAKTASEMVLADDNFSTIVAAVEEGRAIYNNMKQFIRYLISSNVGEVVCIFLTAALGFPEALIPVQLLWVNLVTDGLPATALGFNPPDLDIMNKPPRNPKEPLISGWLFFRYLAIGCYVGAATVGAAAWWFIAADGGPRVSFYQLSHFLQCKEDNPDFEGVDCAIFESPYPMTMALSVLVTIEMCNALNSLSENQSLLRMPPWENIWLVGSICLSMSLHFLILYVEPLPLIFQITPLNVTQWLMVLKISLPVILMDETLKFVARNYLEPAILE
T1 sequence (P11607 1-997 isoform P11607-2): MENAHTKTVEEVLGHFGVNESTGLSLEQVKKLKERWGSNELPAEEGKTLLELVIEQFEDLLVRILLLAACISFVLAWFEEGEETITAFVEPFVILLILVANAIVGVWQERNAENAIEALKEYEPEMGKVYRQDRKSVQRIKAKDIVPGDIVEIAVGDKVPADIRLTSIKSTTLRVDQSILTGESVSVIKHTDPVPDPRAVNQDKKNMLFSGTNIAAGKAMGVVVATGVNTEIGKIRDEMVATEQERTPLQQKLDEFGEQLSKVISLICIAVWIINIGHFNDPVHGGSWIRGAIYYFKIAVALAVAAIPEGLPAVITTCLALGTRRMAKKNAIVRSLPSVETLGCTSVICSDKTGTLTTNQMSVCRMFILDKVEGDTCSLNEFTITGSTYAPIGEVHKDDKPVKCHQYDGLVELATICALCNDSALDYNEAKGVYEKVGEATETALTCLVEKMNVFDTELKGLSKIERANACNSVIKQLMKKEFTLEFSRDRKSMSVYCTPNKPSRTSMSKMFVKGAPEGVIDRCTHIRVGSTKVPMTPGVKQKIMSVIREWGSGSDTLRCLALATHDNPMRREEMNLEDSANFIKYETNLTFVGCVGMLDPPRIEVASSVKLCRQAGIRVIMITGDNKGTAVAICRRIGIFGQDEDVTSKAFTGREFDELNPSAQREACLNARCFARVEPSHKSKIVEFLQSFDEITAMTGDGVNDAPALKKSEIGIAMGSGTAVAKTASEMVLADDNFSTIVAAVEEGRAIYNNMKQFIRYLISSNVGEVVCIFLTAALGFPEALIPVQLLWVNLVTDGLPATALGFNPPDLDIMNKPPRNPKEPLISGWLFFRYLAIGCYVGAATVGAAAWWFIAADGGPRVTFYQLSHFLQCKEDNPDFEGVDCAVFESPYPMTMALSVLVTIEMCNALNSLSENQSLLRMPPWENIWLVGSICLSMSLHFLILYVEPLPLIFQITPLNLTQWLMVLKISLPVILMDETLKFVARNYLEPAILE

Compound	EC50 (SERCA2a [1]) [µM]	Ca2+-ATPase C10 (SERCA2a [2]; [Ca2+]MAX (pCa5.4)) [µM]	Ca2+-ATPase C10 (SERCA2a [2]; [Ca2+]MID (pCa6.2)) [µM]	Ca2+-Uptake C10 (SERCA2a [3]; [Ca2+]MAX (pCa5.4)) [µM]	Ca2+-Uptake C10 (SERCA2a [3]; [Ca2+]MID (pCa6.2)) [µM]	CR (coupling ratio) VU/VA (SERCA2a [3])	Inhibition of Ca2+-uptake (class) (SERCA2a [3])	EC50 [4] [µM]	EC50 (SERCA2a [3]; [Ca2+]MAX (pCa5.4)) [µM]	EC50 (SERCA2a [3]; [Ca2+]MID (pCa6.2)) [µM]	Increase in Ca2+-ATPase activity (SERCA2a [2])	EC50 (SERCA2a [2]; [Ca2+]MAX (pCa5.4)) [µM]	Ca2+-ATPase ΔFMAX (SERCA2a [2]; [Ca2+]MAX (pCa5.4), maximal compound effect vs DMSO control, pCSR) [%]	Ca2+-ATPase ΔFMID (SERCA2a [2]; [5]) [%]	Effect on Ca2+-ATPase activity (category, Fig. 4A) (SERCA2a [2]; [6])	Decrease (inhibition) of Ca2+-uptake at [Ca2+]MAX (SERCA2a [3]; [Ca2+]MAX, size of decrease) [%]	Ca2+-Uptake ΔFMID (SERCA2a [3]; [5])	Effect on Ca2+-uptake (category, Fig. 4A) (SERCA2a [3]; [6])	EC50 (SERCA2a [2]; [Ca2+]MID (pCa6.2)) [µM]
C/C=C(/C)C(=O)O[C@H]1C(C)=C2[C@H]([C@@H]1OC(=O)CCCCCCC)[C@@](C)(OC(C)=O)C[C@H](OC(=O)CCC)[C@@]1(O)[C@H]2OC(=O)[C@@]1(C)O [Tg, thapsigargin]	~0.0075																		
COc1ccc(Cn2cc(C(=O)N(C)Cc3ccnc4ccccc34)nn2)cc1 [Compound 10, 1-(4-methoxybenzyl)-N-methyl-N-(4-quinolinylmethyl)-1H-1,2,3-triazole-4-carboxamide]		7	3.2	4.1	7.9	0.35	Mild → M; also recorded: mild-to-moderate	5.6 ± 0.6											
OCC1(CCOc2ccccc2)CCCN(Cc2cc3c(cc2Cl)OCO3)C1 (stereo not drawn) [Compound 13, [1-[(6-chloro-1,3-benzodioxol-5-yl)methyl]-3-(2-phenoxyethyl)-3-piperidinyl]methanol]		1	1.6	0.5	1.0			9.9 ± 2.1	3.6 ± 0.1	6.4 ± 0.2									
O=C(c1cc(COc2ccc3c(c2)CCCC3)on1)N1CCC(c2ccncc2)CC1 [Compound 3, 4-[1-({5-[(5,6,7,8-tetrahydro-2-naphthalenyloxy)methyl]-3-isoxazolyl}carbonyl)-4-piperidinyl]pyridine]		11.0	14.8	17.5		0.39		1.6 ± 0.2			10–25%	8.4 ± 3.1	21 ± 5.1	30 ± 11	activate	20	6% and 6 ± 3.3%	inhibit	
CCc1ccc(S(=O)(=O)N2CCCC(C(=O)c3sccc3C)C2)cc1 (stereo not drawn) [Compound 14, {1-[(4-ethylphenyl)sulfonyl]-3-piperidinyl}(3-methyl-2-thienyl)methanone]		6.3	3.2	1.3	1.7	0.16	M → S; also recorded: moderate-to-strong	9.2 ± 1.1	3.4 ± 0.2	3.9 ± 0.2		13 ± 11							8.9 ± 2.2
